Data from ChEMBL document CHEMBL1201862, “PubChem BioAssay data set” (2004).
Several values for one entry are separate records, joined by “and”; a condition that tells them apart may be missing. Identical values can stand only once.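 Following 48 hours of exposure in 96-well plates, responses at five concentrations were used to interpolate endpoints linearly. Here, GI50 denotes the concentration required for 50% inhibition of growth.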 Activity calls are given as the source filed them. Cut-off read from the data, not from the text of the source: active = GI50 up to about 1.1 µM and inactive = higher.

Assays:
Test in all cases: growth of human tumour cells (NCI), 48 h
UO-31 = system: UO-31
HT-29 = system: HT-29
HL-60 = system: HL-60
Malme-3M = system: Malme-3M
MCF7 = system: MCF7
OVCAR-8 = system: OVCAR-8
HCT-116 = system: HCT-116
NCI-H226 = system: NCI-H226
HCT-15 = system: HCT-15
A498 = system: A498
M14 = system: M14
U-251 = system: U-251
UACC-257 = system: UACC-257
ACHN = system: ACHN
EKVX = system: EKVX
SK-OV-3 = system: SK-OV-3
OVCAR-5 = system: OVCAR-5
MDA-MB-435 = system: MDA-MB-435
BT-549 = system: BT-549
NCI-H522 = system: NCI-H522

| Structure (SMILES) | GI50 (UO-31) | GI50 (HT-29) | GI50 (HL-60) | GI50 (Malme-3M) | GI50 (MCF7) | GI50 (OVCAR-8) | GI50 (HCT-116) | GI50 (NCI-H226) | GI50 (HCT-15) | GI50 (A498) | GI50 (M14) | GI50 (U-251) | GI50 (UACC-257) | GI50 (ACHN) | GI50 (EKVX) | GI50 (SK-OV-3) | GI50 (OVCAR-5) | GI50 (MDA-MB-435) | GI50 (BT-549) | GI50 (NCI-H522) |
| --- | --- | --- | --- | --- | --- | --- | --- | --- | --- | --- | --- | --- | --- | --- | --- | --- | --- | --- | --- | --- |
| N=C(N)NS(=O)(=O)c1ccc(N/N=C2/CCOC2=O)cc1 | > 100 µM (inactive) | > 100 µM (inactive) | > 100 µM (inactive) | > 100 µM (inactive) | > 100 µM (inactive) | 49.5 µM (inactive) | > 100 µM (inactive) | > 100 µM (inactive) | > 100 µM | > 100 µM (inactive) | > 100 µM (inactive) | 41.2 µM (inactive) | > 100 µM (inactive) | 63.5 µM (inactive) | > 100 µM (inactive) | 40.6 µM (inactive) | > 100 µM (inactive) | > 100 µM (inactive) | > 100 µM (inactive) | – |
| c1cc(C2=NCCO2)c2ccsc2c1 | > 100 µM (inactive) | > 100 µM (inactive) | > 100 µM (inactive) | > 100 µM (inactive) | > 100 µM (inactive) | > 100 µM (inactive) | > 100 µM (inactive) | > 100 µM (inactive) | > 100 µM | > 100 µM (inactive) | > 100 µM (inactive) | > 100 µM (inactive) | > 100 µM (inactive) | > 100 µM (inactive) | > 100 µM (inactive) | > 100 µM (inactive) | > 100 µM (inactive) | > 100 µM (inactive) | – | > 100 µM (inactive) |
| Cc1cc2c(cc1Cl)SC(NNCCO)=NS2(=O)=O | > 100 µM (inactive) | > 100 µM (inactive) | > 100 µM (inactive) | – | > 100 µM (inactive) | > 100 µM (inactive) | > 100 µM (inactive) | > 100 µM (inactive) | > 100 µM | – | > 100 µM (inactive) | > 100 µM (inactive) | > 100 µM (inactive) | > 100 µM (inactive) | > 100 µM (inactive) | > 100 µM (inactive) | – | > 100 µM (inactive) | > 100 µM (inactive) | – |
| C=C1C(O)C23CCC4C(C(=O)O)(C(=O)O)CC(OC5OC(CO)C(O)C(OC(=O)CCc6ccccc6)C5NC(=O)CC(C)C)CC4(C)C2CCC1(O)C3 (stereo unspecified) | > 100 µM (inactive) | > 100 µM (inactive) | > 100 µM (inactive) | > 100 µM (inactive) | – | > 100 µM (inactive) | > 100 µM (inactive) | > 100 µM (inactive) | > 100 µM | > 100 µM (inactive) | > 100 µM (inactive) | > 100 µM (inactive) | > 100 µM (inactive) | > 100 µM (inactive) | > 100 µM (inactive) | > 100 µM (inactive) | > 100 µM (inactive) | > 100 µM (inactive) | > 100 µM (inactive) | > 100 µM (inactive) |
| Cc1ccc2nc3ccccc3c(C3C4C(=O)N(c5ccc(Br)cc5Cl)C(=O)C4ON3C(C(N)=O)c3ccccc3)c2c1 (stereo unspecified) | 7.41 µM (inactive) | 11.2 µM (inactive) | > 25 µM (inactive) | > 25 µM (inactive) | 11.6 µM (inactive) | > 25 µM (inactive) | 13.7 µM (inactive) | 17.2 µM (inactive) | 5.77 µM | > 25 µM (inactive) | 11.6 µM (inactive) | > 25 µM (inactive) | 15.6 µM (inactive) | 6.73 µM (inactive) | 6.56 µM (inactive) | > 25 µM (inactive) | > 25 µM (inactive) | 11.1 µM (inactive) | – | 13.6 µM (inactive) |
| CCc1ccccc1NC(=O)C(=O)CC(=O)c1sc(Nc2ccccc2Cl)nc1C | 32.7 µM (inactive) | 22.1 µM (inactive) | 47 µM (inactive) | – | 18.2 µM (inactive) | 35.1 µM (inactive) | 17.9 µM (inactive) | 29 µM (inactive) | 30.6 µM | – | 27.7 µM (inactive) | 32.5 µM (inactive) | 43.8 µM (inactive) | 30.5 µM (inactive) | 52.4 µM (inactive) | 24.2 µM (inactive) | > 100 µM (inactive) | 25.6 µM (inactive) | 34.8 µM (inactive) | 18.1 µM (inactive) |
| O=C1CC2CCC(C1)[S+]2[O-] (stereo unspecified) | > 100 µM (inactive) | > 100 µM (inactive) | > 100 µM (inactive) | > 100 µM (inactive) | > 100 µM (inactive) | > 100 µM (inactive) | > 100 µM (inactive) | > 100 µM (inactive) | > 100 µM | – | > 100 µM (inactive) | > 100 µM (inactive) | > 100 µM (inactive) | – | > 100 µM (inactive) | > 100 µM (inactive) | – | > 100 µM (inactive) | > 100 µM (inactive) | > 100 µM (inactive) |
| COc1cc(/C=C/C(=O)c2ccc(NS(=O)(=O)c3cc([N+](=O)[O-])ccc3C)cc2)cc(OC)c1OC | 5.82 µM (inactive) | 4.38 µM (inactive) | 3.37 µM (inactive) | – | 2.77 µM (inactive) | 2.49 µM (inactive) | 2.38 µM (inactive) | 2.97 µM (inactive) | 3.04 µM | – | 2.99 µM (inactive) | 3.37 µM (inactive) | 7.53 µM (inactive) | 4.38 µM (inactive) | 5.36 µM (inactive) | 4.01 µM (inactive) | 4.37 µM (inactive) | 3.71 µM (inactive) | 4.27 µM (inactive) | – |
| Cc1cc(C)n2c(nc3ccccc32)c1C#N | > 100 µM (inactive) | > 100 µM (inactive) | > 100 µM (inactive) | > 100 µM (inactive) | > 100 µM (inactive) | > 100 µM (inactive) | 54.1 µM (inactive) | > 100 µM (inactive) | > 100 µM | > 100 µM (inactive) | > 100 µM (inactive) | > 100 µM (inactive) | > 100 µM (inactive) | > 100 µM (inactive) | > 100 µM (inactive) | > 100 µM (inactive) | > 100 µM (inactive) | > 100 µM (inactive) | > 100 µM (inactive) | – |
| Oc1ccc(/C=N/NC(=S)Nc2cccnc2)nc1 | 2.78 µM (inactive) | 5.33 µM (inactive) | 3.76 µM (inactive) | 2.07 µM (inactive) | 7.89 µM (inactive) | 2.79 µM (inactive) | 4.49 µM (inactive) | 33.3 µM (inactive) | 5.27 µM | 33.7 µM (inactive) | 6.1 µM (inactive) | 6.22 µM (inactive) | 13.7 µM (inactive) | 4.76 µM (inactive) | 12.6 µM (inactive) | 8.99 µM (inactive) | 40.3 µM (inactive) | 5.9 µM (inactive) | – | 1.97 µM (inactive) |
| COC1OC(COC(=O)NCCCCC(=O)C(F)(F)C(F)(F)C(F)(F)C(F)(F)C(F)(F)C(F)(F)C(F)(F)F)C(O)C(O)C1O (stereo unspecified) | 16.8 µM (inactive) and 17.1 µM (inactive) | 15.8 µM (inactive) and 13.5 µM (inactive) | – | 22.8 µM (inactive) and 20.1 µM (inactive) | 17.6 µM (inactive) and 18.4 µM (inactive) | – | 15 µM (inactive) and 19 µM (inactive) | – | 18.5 µM and 19.4 µM | – | 14.8 µM (inactive) and 16 µM (inactive) | 19.3 µM (inactive) and 11.9 µM (inactive) | 16.9 µM (inactive) and 16.6 µM (inactive) | 15.6 µM (inactive) and 16.4 µM (inactive) | – | 14.2 µM (inactive) and 15.8 µM (inactive) | 17.8 µM (inactive) and 17.5 µM (inactive) | 15.8 µM (inactive) and 16.6 µM (inactive) | 17.6 µM (inactive) and 17.4 µM (inactive) | – |
| COc1cc(-c2nc3ccccn3c2/N=C/c2cc(Br)cc(Br)c2O)ccc1O | 13.7 µM (inactive) | 22.3 µM (inactive) | 18.2 µM (inactive) | 23.3 µM (inactive) | 22.3 µM (inactive) | 23.4 µM (inactive) | 18.4 µM (inactive) | 24.1 µM (inactive) | 19 µM | – | 18.2 µM (inactive) | 15.6 µM (inactive) | 27.1 µM (inactive) | 48.8 µM (inactive) | 19.1 µM (inactive) | 23.9 µM (inactive) | 31.4 µM (inactive) | 22.4 µM (inactive) | 20.3 µM (inactive) | 23.2 µM (inactive) |
| CCOC(=O)c1cc(I)c(-c2cc(C)no2)n1C | 37.9 µM (inactive) | 74.1 µM (inactive) | 26.1 µM (inactive) | 28.1 µM (inactive) | – | 59 µM (inactive) | 40.4 µM (inactive) | > 100 µM (inactive) | 49.9 µM | 23.7 µM (inactive) | 94 µM (inactive) | 60.5 µM (inactive) | 71.6 µM (inactive) | 48.3 µM (inactive) | 27 µM (inactive) | > 100 µM (inactive) | 93.3 µM (inactive) | 34.8 µM (inactive) | 64.7 µM (inactive) | 33.4 µM (inactive) |
| CC1(C)O[C@@H]([C@@H](O)[C@H](O)C2SCCCS2)[C@@H](CO)O1 | > 100 µM (inactive) | > 100 µM (inactive) | > 100 µM (inactive) | > 100 µM (inactive) | – | > 100 µM (inactive) | > 100 µM (inactive) | > 100 µM (inactive) | > 100 µM | > 100 µM (inactive) | > 100 µM (inactive) | > 100 µM (inactive) | > 100 µM (inactive) | > 100 µM (inactive) | > 100 µM (inactive) | > 100 µM (inactive) | > 100 µM (inactive) | > 100 µM (inactive) | > 100 µM (inactive) | > 100 µM (inactive) |
| O=C1N/C(=N/N=C/C(O)C(O)C(O)CO)N/C1=C\c1c[nH]c2ccccc12 (stereo unspecified) | – | > 100 µM (inactive) | > 100 µM (inactive) | > 100 µM (inactive) | > 100 µM (inactive) | > 100 µM (inactive) | > 100 µM (inactive) | > 100 µM (inactive) | > 100 µM | – | > 100 µM (inactive) | > 100 µM (inactive) | > 100 µM (inactive) | > 100 µM (inactive) | > 100 µM (inactive) | > 100 µM (inactive) | > 100 µM (inactive) | > 100 µM (inactive) | > 100 µM (inactive) | > 100 µM (inactive) |
